In PMC13183420, “Sustained Action of Imapextide, A Glucagon-Like Peptide-1 Receptor Antagonist, in Healthy Volunteers” (The Journal of Clinical Endocrinology and Metabolism, 2025):

Key:
OATP1B1/OATP1B3 = assay: Drug-drug interaction: rosuvastatin PK in presence or absence of imapextide; assay type: in vivo, human; details: plasma, n = 14, statistic in brackets not given
Source text: (§1) The DDI portion of the study included 1 cohort of 14 HVs and consisted of 2 study periods. […] Blood samples were also collected to measure clearance of the endogenous biomarker for hepatic OATP inhibition, coproporphyrin-I (CP-I), to assess potential inhibition of OATP1B1/3 by imapextide. […] The primary objective of the DDI portion was to evaluate the PK of rosuvastatin and acetaminophen in the presence and absence of imapextide.
Imapextide was also examined as a perpetrator of OATP1B1/3, which would affect the hepatic clearance of rosuvastatin and CP-I. PK assessments for rosuvastatin included Cmax, tmax, AUC from 0 to 72 hours (AUC0-72), and AUCinf. PK assessments for CP-I included Cmax, tmax, AUC0-72, and AUC from 0 to 108 hours (AUC0-108).

healthy volunteers = assay: Safety and tolerability, drug-drug interaction part; assay type: in vivo, human; details: n = 14; for TRAE, Rosuvastatin-related: rosuvastatin 10 mg; for TRAE, Acetaminophen-related: acetaminophen 1000 mg
Procedure: This phase 1, randomized, double-blind, placebo-controlled study (NCT06036784) enrolled healthy adults (aged 18-65 years) with a body mass index of 18 to 30 kg/m^2, stable body weight for 3 months or longer, and without diabetes. Potential participants were ineligible if they had type 1 or type 2 diabetes or prediabetes (based on medical history, relevant concomitant medications [including oral or injectable antidiabetic medications], fasting plasma glucose concentrations ≥100 mg/dL or glycated hemoglobin concentrations ≥5.7% [American Diabetes Association thresholds for diabetes and prediabetes ([18])]).
as §1
The primary objective of the SAD and MAD portions of the study was to evaluate the safety and tolerability of imapextide; safety was also evaluated in the DDI portion. Safety assessments included incidence and severity of treatment-emergent adverse events (TEAEs), changes in physical examination findings, clinical laboratory abnormalities (serum chemistry, hematology, urinalysis, and coagulation; abnormalities were defined as deviation from the laboratory normal range), and potential effect on vital sign measures. All blood samples for safety analyses were collected after an overnight fast (≥8 hours). If present, data on ISRs were collected using a dedicated form and rated on severity according to the US Food and Drug Administration toxicity scale for vaccines (for details on severity grading, see Supplementary Table S1) ([20], [21]). All ISRs were evaluated, regardless of whether they were reported as TEAEs by the investigator. In the 30-mg-R cohort, participants with ISRs grade 2 or worse underwent a dermatology consultation, including a potential skin biopsy at the discretion of the dermatologist.

[1] = Period 1 (RBX 10 mg + APAP 1000 mg), no imapextide
[2] = Period 2 (RBX 10 mg + APAP 1000 mg + imapextide 45 mg given 2 days before)
[3] = DDI Period 2 (RBX + APAP + Imapextide 45 mg)

Structure (SMILES)	AUC0-72 (OATP1B1/OATP1B3; [1])	AUC0-inf (OATP1B1/OATP1B3; [1])	Cmax (OATP1B1/OATP1B3; [1])	tmax (OATP1B1/OATP1B3; [1])	AUC0-72 (OATP1B1/OATP1B3; [2])	AUC0-inf (OATP1B1/OATP1B3; [2])	Cmax (OATP1B1/OATP1B3; [2])	tmax (OATP1B1/OATP1B3; [2])	TRAE, Rosuvastatin-related (healthy volunteers; DDI Period 1 (RBX + APAP))	TRAE, Rosuvastatin-related (healthy volunteers; [3])	TRAE, Acetaminophen-related (healthy volunteers; DDI Period 1 (RBX + APAP))	TRAE, Acetaminophen-related (healthy volunteers; [3])
CC(C)c1nc(N(C)S(C)(=O)=O)nc(-c2ccc(F)cc2)c1/C=C/[C@@H](O)C[C@@H](O)CC(=O)O [Rosuvastatin, rosuvastatin]	27,660 (56.1) h*pg/mL	36,090 (50.3) h*pg/mL	2307 (85.1) pg/mL	2.80 (84.7) h	31,730 (48.3) h*pg/mL	32,490 (49.4) h*pg/mL	2962 (61.9) pg/mL	2.72 (38.1) h	0 n (%)	0 n (%)		
CC(=O)Nc1ccc(O)cc1 [Acetaminophen, acetaminophen]											0 n (%)	0 n (%)
